In EP0459298A2, “Use of substituted beta-hydroxyethylamines as potent inhibitors of a fungal exoenzyme” (HOECHST AKTIENGESELLSCHAFT, priority 1990, dated 1991):
Read-outs that look alike come from different tables or passages of the source.

Assays:
[1] = test system: Candida albicans; set-up: species or system Maus; details: in vivo; for Überlebenszeit (bez. auf Fluconazol = 100 % ): 50 mg/kg
Excerpt: Als Beispiele für die systemische in vivo-Wirksamkeit der Verbindungen dient die systemische Candida albicans Infektion bei der Maus.
Ziel dieser Methode ist es, den Effekt von Präparaten auf eine systemische Candida albicans Infektion zu ermitteln. Die Infektion führt innerhalb von 2-4 Tagen zum Tod der Tiere.
Beschreibung der Methode: Albino Mäuse (NMRI, Männchen, 15-20 g Körpergewicht) werden intravenös mit Candida albicans Hefezellen infiziert (Stamm 200/175), die frisch auf Malzagar vorkultiviert wurden und in physiologischer Kochsalzlösung suspendiert wurden. Die Infektionsdosis, die in dem angegebenen Zeitrahmen zur Lethalität führt, wurde photometrisch eingestellt und enthielt eine Million Hefezellen pro Maus.
Die zu prüfenden Verbindungen werden entweder alleine oder in Kombination mit einem Standardantimykotikum verabreicht. Im durchgeführten Test wurde ein Kombinationspräparat verwendet, wobei als Standardantimykotikum Fluconazol (Fa. Pfizer) diente. Applikationswege sind je nach Substanzgruppe unterschiedlich, wobei der oralen Applikation der Vorzug gegeben wird. Die Mäuse werden 4 Wochen beobachtet, die Mortalität wird täglich registriert, und die Überlebenszeiten der einzelnen Gruppen werden gemittelt und untereinander verglichen. Gruppengröße beträgt durchschnittlich 10 Tiere.
Der Vergleich der Mittelwerte geschieht mit dem Students T Test.
Dosierungen: Fluconazol jeweils 8 x p.o. 50 mg/kg/Tag β-Hydroxy-ethylamin jeweils 14 x p.o. 50 mg/kg/Tag

[2] = test system: liposomalen Phospholipase A1 von Säugern; details: in-vitro-Test; Biochem. Pharmacol. 34, 521-24, 1985; cited from earlier work
[3] = test system: Trichophyton mentagrophytes; assay: Percent killing of Trichophyton mentagrophytes in vitro; assay type: cell-based; details: nach 14 h in aqua dest., read-out: %-Abtötung von Trichophyton mentagrophytes; for killing at 2.5 µg/mL: 2,5 µg/ml
Procedure: (Werte in %-Abtötung von Trichophyton mentagrophytes nach 14 h in aqua dest.)

[4] = test system: Plasmopara viticola; assay: Fungicidal activity on vine seedlings inoculated with Plasmopara viticola; assay type: in vivo, Weinsämlinge; details: untreated infected control = 100
Procedure: Weinsämlinge wurden ca. 6 Wochen nach der Aussaat mit wäßrigen Suspensionen der zu untersuchenden Verbindungen gleichmäßig benetzt. Nach dem Antrocknen des Spritzbelages wurden die Pflanzen mit einer Sporensuspension von Plasmopara viticola inokuliert und für kurze Zeit in eine Klimakammer (23 °C und 80-90 % rel. Luftfeuchte) gestellt. Nach einer Inkubationszeit von 7 Tagen wurden die Pflanzen zur Sporulation des Pilzes erneut für einige Stunden in die Klimakammer gestellt. Anschließend erfolgte die Auswertung des Befalls. Der Befallsgrad wird ausgedrückt in % befallener Blattfläche im Vergleich zu den unbehandelten, infizierten Kontrollpflanzen und ist in Tabelle 4 wiedergegeben.

[5] = 125 ppm Wirkstoff (mg Wirkstoff/Liter Spritzbrühe)
[6] = 250 ppm Wirkstoff (mg Wirkstoff/Liter Spritzbrühe)
[7] = 500 ppm Wirkstoff (mg Wirkstoff/Liter Spritzbrühe)

SMILES: CC(C)CC(C)NCC(O)COc1ccccc1C1CCCC1 (centres unmarked) [Verbindung 1.10]
- Überlebenszeit (bez. auf Fluconazol = 100 % ) [1]: 149%

SMILES: OC(Cn1cncn1)(Cn1cncn1)c1ccc(F)cc1F [Fluconazol, reference compound]
- Überlebenszeit (bez. auf Fluconazol = 100 % ) ([1]; po): 100%

SMILES: CC(C)NCC(O)COc1cccc2ccccc12 (centres unmarked) [Propranolol]
- Hemmwirkung gegenüber Phospholipase aus Leberzellen [2]: wirksamste Substanz

SMILES: Cc1cc(COc2ccc(Oc3ccc(Cl)cc3)cc2)n(O)c(=O)c1 [Rilopirox, reference compound]
- killing at 5 µg/mL [3]: 96.2%
- killing at 10 µg/mL [3]: 100%
- killing at 20 µg/mL [3]: 100%
- killing at 40 µg/mL [3]: 100%
- killing at 80 µg/mL [3]: 100%
- killing at 2.5 µg/mL [3]: 94.1%

SMILES: CCCCNCC(O)COc1ccc(C(C)(C)C)cc1 (centres unmarked) [Verbindung 1.37]
- mit Plasmopara viticola befallene Blattfläche in % [4, 5]: 0%
- mit Plasmopara viticola befallene Blattfläche in % [4, 6]: 0%
- mit Plasmopara viticola befallene Blattfläche in % [4, 7]: 0%

SMILES: CC(C)(C)c1ccc(OCC(O)CNCc2cccs2)cc1 (centres unmarked) [Verbindung 1.32]
- mit Plasmopara viticola befallene Blattfläche in % [4, 5]: 0%
- mit Plasmopara viticola befallene Blattfläche in % [4, 6]: 0%
- mit Plasmopara viticola befallene Blattfläche in % [4, 7]: 0%

SMILES: CC(C)(C)c1ccc(OCC(O)CNc2ccccc2)cc1 (centres unmarked) [Verbindung 1.16]
- Verlängerung der Überlebenszeit [1]: 65%
- Überlebenszeit (bez. auf Fluconazol = 100 % ) [1]: 165%

SMILES: COc1ccc(CC(C)(C)NCC(O)COc2ccccc2C2CCCC2)cc1 (centres unmarked) [Verbindung 1.18]
- killing at 5 µg/mL [3]: 95.7%
- killing at 10 µg/mL [3]: 100%
- killing at 20 µg/mL [3]: 100%
- killing at 40 µg/mL [3]: 100%
- killing at 80 µg/mL [3]: 100%
- killing at 2.5 µg/mL [3]: 79.3%
